Activity calls are given as the source filed them. The calls are words filed in the database; no cut-off is given here.

For data set [1], the target named is T1, Relaxin-3 receptor 2 (Homo sapiens, UniProt Q8TDU9). The experiment in a line: Agonist activity at human RXFP4 expressed in CHOK1 cells assessed as inhibition of forskolin-stimulated intracellular cAMP accumulation preincubated for 30 mins followed by forskolin-stimulation and measured after 30 mins by HTRF assay relative to relaxin-3. The class given is functional, cell-based. (In general: Cyclic AMP is a second messenger, typically raised through Gs and lowered through Gi signalling.)

Data set [2] deals with T1, Relaxin-3 receptor 2. The experiment in a line: Agonist activity at human RXFP4 expressed in CHOK1 cells assessed as inhibition of forskolin-stimulated intracellular cAMP accumulation preincubated for 30 mins followed by forskolin-stimulation and measured after 30 mins by HTRF assay. The data set is classed as functional, cell-based.
The target of data set [3] is T2, Relaxin-3 receptor 1 (Homo sapiens) (UniProt Q9NSD7).
T2 sequence (whole entry): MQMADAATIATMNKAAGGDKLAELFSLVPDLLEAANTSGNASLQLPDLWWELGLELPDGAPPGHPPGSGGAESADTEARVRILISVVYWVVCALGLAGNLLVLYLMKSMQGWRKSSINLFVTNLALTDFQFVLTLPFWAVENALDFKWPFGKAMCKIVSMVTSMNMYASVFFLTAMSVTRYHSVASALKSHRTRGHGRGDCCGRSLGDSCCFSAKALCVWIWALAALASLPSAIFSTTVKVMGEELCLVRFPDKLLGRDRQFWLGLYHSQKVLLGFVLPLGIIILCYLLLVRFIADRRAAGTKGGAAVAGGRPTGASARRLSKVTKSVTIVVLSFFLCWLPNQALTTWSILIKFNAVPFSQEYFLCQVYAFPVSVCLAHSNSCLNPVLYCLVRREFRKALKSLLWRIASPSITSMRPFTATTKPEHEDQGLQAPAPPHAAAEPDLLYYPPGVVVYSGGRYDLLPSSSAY
In words: Agonist activity at human RXFP3 expressed in CHOK1 cells assessed as induction of JNK phosphorylation at 5 uM by Western blot analysis. The data set is classed as cell-based. For orientation: A western blot detects proteins with antibodies after separation by electrophoresis.

Data set [4] is filed under the species Cricetulus griseus. In words: Induction of JNK phosphorylation CHOK1 cells at 5 uM by Western blot analysis.
In data set [5] the test system is CHO-K1. In words: Effect on total ERK1/2 protein levels in CHOK1 cells at 5 uM by Western blot analysis. The data set is classed as ADME, cell-based, Cricetulus griseus. As to conditions: chinese hamster, cho-k1, 5 µM.
The target of data set [6] is T1, Relaxin-3 receptor 2. In words: Agonist activity at human RXFP4 expressed in CHOK1 cell membranes assessed as stimulation of [35S]-GTPgammaS binding after 3 hrs by scintillation counting method. The data set is classed as functional. A general note: Binding of GTPγS marks nucleotide exchange on a G protein.
Data set [7] concerns the target T2, Relaxin-3 receptor 1 (Homo sapiens). In words: Agonist activity at human RXFP3 expressed in CHOK1 cells assessed as inhibition of forskolin-stimulated intracellular cAMP accumulation preincubated for 30 mins followed by forskolin-stimulation and measured after 30 mins by HTRF assay relative to relaxin-3. The class given is functional, cell-based.
Data set [8] deals with Rattus norvegicus. In words: Induction of food intake in Sprague-Dawley rat at 1 umol, icv after 4 hrs (reference value: 2.5 +/- 0.6g). The class given is functional.
The species named for data set [9] is Cricetulus griseus. In words: Induction of ERK1/2 phosphorylation CHOK1 cells at 5 uM by Western blot analysis.
Data set [10] deals with Relaxin-3 receptor 1/2 (Homo sapiens) (UniProt Q9NSD7+Q8TDU9). In words: Agonist activity at human RXFP3/4 in human U2OS cells assessed as induction of beta-arrestin recruitment incubated for 1 hr by chemiluminescence based PathHunter beta-arrestin assay relative to relaxin-3. The data set is classed as cell-based.
For data set [11], the target named is T2, Relaxin-3 receptor 1 (Homo sapiens). In words: Agonist activity at human RXFP3 expressed in CHOK1 cells assessed as induction of ERK1/2 phosphorylation at 5 uM by Western blot analysis. The data set is classed as cell-based.
The species named for data set [12] is Cricetulus griseus. In words: Induction of p38 MAPK phosphorylation CHOK1 cells at 5 uM by Western blot analysis.
Data set [13] relates to Rattus norvegicus. In words: Induction of food intake in satiated Sprague-Dawley rat at 1 umol, icv after 0 to 2 hrs (reference value: 1.7 +/- 0.5g). The class given is functional.
Data set [14] concerns Rattus norvegicus. The experiment in a line: Induction of food intake in Sprague-Dawley rat at 1 umol, icv after 24 hrs (reference value: 24.1 +/- 2.7g). The class given is functional.
Data set [15] has as its target T2, Relaxin-3 receptor 1 (Homo sapiens). In words: Agonist activity at human RXFP3 expressed in CHOK1 cells assessed as induction of p38 MAPK phosphorylation at 5 uM by Western blot analysis. The data set is classed as cell-based.
Data set [16] has as its system CHO-K1. In words: Effect on total p38 MAPK protein levels in CHOK1 cells at 5 uM by Western blot analysis. The data set is classed as ADME, cell-based, Cricetulus griseus. The note with it: chinese hamster, cho-k1, 5 µM.
Data set [17] deals with CHO-K1. The experiment in a line: Effect on total JNK protein levels in CHOK1 cells at 5 uM by Western blot analysis. As to conditions: chinese hamster, cho-k1, 5 µM. The data set is classed as ADME, cell-based, Cricetulus griseus.
Data set [18] has as its target T3, Relaxin-3 receptor 1 (Homo sapiens, UniProt Q9NSD7).
T3 sequence (Q9NSD7 whole entry): T2 sequence (whole entry)
In words: Agonist activity at human RXFP3 expressed in CHOK1 cells assessed as inhibition of forskolin-stimulated intracellular cAMP accumulation preincubated for 30 mins followed by forskolin-stimulation and measured after 30 mins by HTRF assay. The data set is classed as functional, cell-based.

T1 sequence (Q8TDU9 whole entry): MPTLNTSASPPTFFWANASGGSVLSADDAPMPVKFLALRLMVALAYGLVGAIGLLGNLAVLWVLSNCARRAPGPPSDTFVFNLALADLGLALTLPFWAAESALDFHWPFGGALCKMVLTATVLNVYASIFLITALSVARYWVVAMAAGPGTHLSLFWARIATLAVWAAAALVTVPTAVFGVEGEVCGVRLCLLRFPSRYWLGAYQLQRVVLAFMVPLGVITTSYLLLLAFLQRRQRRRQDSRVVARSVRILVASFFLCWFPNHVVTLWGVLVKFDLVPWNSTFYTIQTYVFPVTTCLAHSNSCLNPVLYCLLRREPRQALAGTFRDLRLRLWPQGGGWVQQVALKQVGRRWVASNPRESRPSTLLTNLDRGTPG
Sequence of Relaxin-3 receptor 1/2 (Homo sapiens) (Q8TDU9 whole entry, looked up, one chain of several): as the sequence (Q8TDU9 whole entry) above

For orientation: Emax means the size of the effect at its maximum, as opposed to the concentration needed. Usually EC50 stands for the concentration at which the effect is half-maximal. Consider `COc1cc(C)c2[nH]cc(/C=N/NC(=N)NCCc3ccc(Cl)c(Cl)c3)c2c1`, for which the Emax in data set [1] lay in the range of 99 to 99.2%. Also, in [2], the EC50 came to 58 nM.
Consider `CCc1cc(O)cc2c(/C=N/NC(=N)NCCc3ccc(Cl)cc3)c[nH]c12`, for which the outcome in data set [3] and in [11] was Active. The outcome in data set [4], in data set [9], in data set [12] and in data set [15] was inactive. Further, the Activity entry is given as “Non-Toxic” in data set [5]; 7.1 g in [8]; 3.5 g in [13]; 35.3 g in [14]; “Non-Toxic” in [16]; “Non-Toxic” in [17]. The half-maximal effective concentration (EC50) in [6] was 11 nM; in data set [2], 2 nM. Moreover, the results for the Emax in data set [1], in data set [7] and in data set [10] were 100%, 105% and 79.2%, respectively.
For `COc1cc(C)c2[nH]cc(/C=N/NC(=N)NCCc3ccc(Cl)cc3)c2c1`, the figures for the Emax in data set [1] and in [7] were 113% and 55.7%, respectively. Moreover, the 50% effective concentration (EC50) in [2] turned out to be 100 nM; in [18], 1300 nM.
Taken in the same sequence, the figures for `Cc1cc(O)cc2c(/C=N/NC(=N)NCCc3ccc(Cl)c(Cl)c3)c[nH]c12` were 113%, 77.7%, 4 nM and 800 nM.

The record behind these values is ChEMBL document CHEMBL4400563, “Discovery of a small molecule RXFP3/4 agonist that increases food intake in rats upon acute central administration” (Bioorg Med Chem Lett, 2019).
